According to patent US10654895B2, “Polypeptide, DNA molecule encoding the polypeptide, vector, preparation method and use” (WUHAN MORE BIOTECHNOLOGY CO., LTD., priority 2013, dated 2020):
Where two headings read alike, the source gives them in different places. No end group written: not given here.

Assays:
[1] = test system: Staphylococcus aureus (RA) ATCC25923; settings: for MIC: Staphylococcus aureus (RA) ATCC25923, >25 means greater than or equal to 50 μg/mL; for inhibitory effect / antiseptic activity in words: against Staphylococcus aureus (RA) ATCC25923 and/or Escherichia coli ATCC25922
[2] = test system: Escherichia coli (E. coli) ATCC25922; settings: >25 means greater than or equal to 50 μg/mL
Pseudomonas aeruginosa = settings: Pseudomonas aeruginosa, strain not specified (Table 8)
[3] = test system: Methicillin-resistant Staphylococcus aureus (MRSA); settings: Methicillin-resistant Staphylococcus aureus (Table 8)
[4] = Staphylococcus aureus (methicillin-sensitive), strain not specified (Table 8)
[5] = Escherichia coli, strain not specified (Table 8)
[6] = standard Staphylococcus aureus (Table 2)
[7] = standard Escherichia coli (Table 2)

| Substance | MIC [1] [µg/mL] | MIC [2] [µg/mL] | Minimum inhibitory concentration MIC (Staphylococcus aureus; [6]) [µg/mL] | Minimum inhibitory concentration MIC (Escherichia coli; [7]) [µg/mL] | further results |
| --- | --- | --- | --- | --- | --- |
| ARLLRIFFIRIARLLRIF [Ctryamp polypeptide mutant 27, ARLLRIFFIRIARLLRIF] | >25 | >25 |  |  |  |
| Ac-FIRIARLLRIF [Ctryamp polypeptide mutant 32, Ac-FIRIARLLRIF] | 6.25 | 25 |  |  | inhibitory effect / antiseptic activity in words [1]: still have the antiseptic activity |
| FFIRIARLLRIF [Ctryamp polypeptide mutant 21, FFIRIARLLRIF] | 12.5 | 25 |  |  |  |
| FIGAIARLLRKIF [ABP-W1, reference compound] |  |  |  |  | Minimum inhibitory concentration MIC (Staphylococcus aureus; [4]): 3.13 µg/mL; Minimum inhibitory concentration MIC (Pseudomonas aeruginosa): >100 µg/mL; Minimum inhibitory concentration MIC (Escherichia coli; [5]): >100 µg/mL; Minimum inhibitory concentration MIC [3]: 8 µg/mL |
| FIGAIARLLSKIF [BmKAMP1, reference compound] |  |  |  |  | Minimum inhibitory concentration MIC (Staphylococcus aureus; [4]): 3.13 µg/mL; Minimum inhibitory concentration MIC (Pseudomonas aeruginosa): >100 µg/mL; Minimum inhibitory concentration MIC (Escherichia coli; [5]): >100 µg/mL; Minimum inhibitory concentration MIC [3]: 12.5 µg/mL |
| FIHIAHLLRIF [Ctryamp-5, FIHIAHLLRIF] |  |  | 12.5 | 6.25 |  |
| FIHIAKLLRIF [Ctryamp-7, FIHIAKLLRIF] |  |  | 6.25 | 12.5 |  |
| FIHIARLLHIF [Ctryamp-6, FIHIARLLHIF] |  |  | 6.25 | 6.25 |  |
| FIHIARLLRIF [Ctryamp-R3H, FIHIARLLRIF] |  |  | 6.25 | 6.25 |  |
| FIKIAKLLKIF [Ctryamp-4, FIKIAKLLKIF] | 25 | 12.5 | 12.5 | 6.25 |  |
| FIKIAKLLRIF [Ctryamp-1, FIKIAKLLRIF] |  |  | 6.25 | 6.25 |  |
| FIKIARLLKIF [Ctryamp-2, FIKIARLLKIF] | 12.5 | 12.5 | 12.5 | 6.25 |  |
| FIKIARLLRIF [Ctryamp-R3K, FIKIARLLRIF] |  |  | 6.25 | 12.25 |  |
| FIKIGKILKIF [Ctryamp polypeptide mutant 7, FIKIGKILKIF] | >25 | 12.5 |  |  |  |
| FIKIGKLLKIF [Ctryamp polypeptide mutant 6, FIKIGKLLKIF] | 25 | 12.5 |  |  |  |
| FIKRIARLLRIF [Ctryamp polypeptide mutant 20, FIKRIARLLRIF] | 6.25 | 6.25 |  |  |  |
| FIKRIARLLRKIF [BmKAMP1-M, reference compound] |  |  |  |  | Minimum inhibitory concentration MIC (Staphylococcus aureus; [4]): 12.5 µg/mL; Minimum inhibitory concentration MIC (Pseudomonas aeruginosa): 50 µg/mL; Minimum inhibitory concentration MIC (Escherichia coli; [5]): 12.5 µg/mL; Minimum inhibitory concentration MIC [3]: 6.25 µg/mL |
| FIRARLLRIF [Ctryamp polypeptide mutant 10, FIRARLLRIF] | >25 | >25 |  |  |  |
| FIRIADLLRIF [Ctryamp polypeptide mutant 2, FIRIADLLRIF] | 25 | >25 |  |  |  |
| FIRIAHLLRIF [Ctryamp-R5H, FIRIAHLLRIF] |  |  | 6.25 | 12.5 |  |
| FIRIAKLLHIF [Ctryamp-8, FIRIAKLLHIF] |  |  | 6.25 | 12.5 |  |
| FIRIAKLLKIF [Ctryamp-3, FIRIAKLLKIF] | 12.5 | 12.5 | 6.25 | 12.5 |  |
| FIRIAKLLRIF [Ctryamp-R5K, FIRIAKLLRIF] |  |  | 6.25 | 6.25 |  |

| Substance | MIC [1] [µg/mL] | MIC [2] [µg/mL] | Minimum inhibitory concentration MIC (Staphylococcus aureus; [6]) [µg/mL] | Minimum inhibitory concentration MIC (Escherichia coli; [7]) [µg/mL] | further results |
| --- | --- | --- | --- | --- | --- |
| FIRIARLLEIF [Ctryamp polypeptide mutant 1, FIRIARLLEIF] | >25 | >25 |  |  | inhibitory effect / antiseptic activity in words [1]: no antiseptic activity |
| FIRIARLLHIF [Ctryamp-R9H, FIRIARLLHIF] |  |  | 6.25 | 6.25 |  |
| FIRIARLLIF [Ctryamp polypeptide mutant 11, FIRIARLLIF] | >25 | >25 |  |  |  |
| FIRIARLLKIF [Ctryamp-R9K, FIRIARLLKIF] |  |  | 6.25 | 12.5 |  |
| FIRIARLLKRIF [Ctryamp polypeptide mutant 18, FIRIARLLKRIF] | 6.25 | 12.5 |  |  |  |
| FIRIARLLRIFFIRIARLLRIF [Ctryamp polypeptide mutant 31] | >25 | >25 |  |  |  |
| FIRIARLLRKIF [Ctryamp polypeptide mutant 17, FIRIARLLRKIF] | 6.25 | 12.5 |  |  |  |
| FIRIARLRIF [Ctryamp polypeptide mutant 8, FIRIARLRIF] | 25 | 12.5 |  |  |  |
| FIRKIARLLRIF [Ctryamp polypeptide mutant 19, FIRKIARLLRIF] | 6.25 | 6.25 |  |  |  |
| FIRLRIF [Ctryamp polypeptide mutant 14, FIRLRIF] | >25 | >25 |  |  |  |
| FIRRLLRIF [Ctryamp polypeptide mutant 12, FIRRLLRIF] | 12.5 | 25 |  |  |  |
| FIRRLRIF [Ctryamp polypeptide mutant 13, FIRRLRIF] | >25 | >25 |  |  |  |
| FRIARLLRIF [Ctryamp polypeptide mutant 9, FRIARLLRIF] | 12.5 | 6.25 |  |  |  |
| GFIRIARLLRIF [Ctryamp polypeptide mutant 16, GFIRIARLLRIF] | 6.25 | 6.25 |  |  |  |
| IARLLRIFFIRIARLLRIF [Ctryamp polypeptide mutant 28, IARLLRIFFIRIARLLRIF] | >25 | >25 |  |  |  |
| IFFIRIARLLRIF [Ctryamp polypeptide mutant 22, IFFIRIARLLRIF] | 12.5 | >25 |  |  |  |
| IRIARLLRIFFIRIARLLRIF [Ctryamp polypeptide mutant 30] | >25 | >25 |  |  |  |
| LLRIFFIRIARLLRIF [Ctryamp polypeptide mutant 25, LLRIFFIRIARLLRIF] | 25 | >25 |  |  |  |
| LRIFFIRIARLLRIF [Ctryamp polypeptide mutant 24, LRIFFIRIARLLRIF] | 25 | >25 |  |  |  |
| RIARLLRIFFIRIARLLRIF [Ctryamp polypeptide mutant 29] | >25 | >25 |  |  |  |
| RIFFIRIARLLRIF [Ctryamp polypeptide mutant 23, RIFFIRIARLLRIF] | 12.5 | 12.5 |  |  |  |
| RLLRIF [Ctryamp polypeptide mutant 15, RLLRIF] | >25 | >25 |  |  |  |
| RLLRIFFIRIARLLRIF [Ctryamp polypeptide mutant 26, RLLRIFFIRIARLLRIF] | >25 | >25 |  |  |  |
